The values that follow come from US11117930B2, “Peptide inhibitors of transcription factor aggregation” (ADRX, INC., priority 2017, dated 2021).

Where two headings read alike, the source gives them in different places. Non-standard residues stand in square brackets, D forms with d. Residues, ends and D or L forms follow the SMILES beside them. No end group written: not given here.

Data set [1] has as its target p63 [RPILIIVTLE—SEQ ID NO: 226] (Homo sapiens, UniProt Q9H3D4). The data set is described as follows: Thioflavin T aggregation assay, p63 amyloidogenic region. As to conditions: inhibitors added in solution; FIG. 2(a). The data set is classed as biochemical. Also on record: dose or concentration left out as unconfirmed. An excerpt:
(§1) FIGS. 1(a) and 1(b) show the aggregation of p63 and p73 amyloidogenic regions, respectively. The aggregation of the p63 and p73 sequences are monitored via Thioflavin T assay: an increase in Thioflavin T fluorescence is detected over time due to the formation of increasing amounts of amyloid to which the dye can specifically bind.
(§2) FIGS. 2(a) and 2(b) show the in vitro inhibition of p63 and p73 aggregation by several inhibitors. The aggregation is monitored via Thioflavin T assay. […] The baseline of no inhibitor is the line with squares.
The peptides are tested for p63 binding and p73 binding in an in vitro Thiofiavin T aggregation assay. […] The addition of the 50 μM solutions of p63 and p73 peptides to the reaction Buffer described in Example 3, forms amyloid (FIG. 1(a) and FIG. 1(b)). An increase in Thioflavin T fluorescence is detected over time due to the formation of increasing amounts of amyloid to which the dye can specifically bind. […] For the Nat1 Stock Solution, Nat1 (LTIITLE (SEQ ID NO: 225), >95% Pure, TFA salt) is dissolved at 8 mM in 25 mM NaOH solution and kept at −80° C. Prior to the assay, it is diluted to 1 mM in H2O. […] ThT fluorescence is monitored at room temperature every minute for 2 hours with excitation and emission wavelengths of 440 and 485 nm, respectively. […]

For data set [2], the target named is p73 [RPILIIITLE—SEQ ID NO: 227] (Homo sapiens, UniProt O15350). Put plainly: Thioflavin T aggregation assay, p73 amyloidogenic region. To be noted: inhibitors added in solution; FIG. 2(b). It is filed as biochemical. Also noted: dose or concentration left out as unconfirmed.
Source text: as §1, §2
An increase in Thioflavin T fluorescence is detected over time due to the formation of increasing amounts of amyloid to which the dye can specifically bind. […] For the Nat1 Stock Solution, Nat1 (LTIITLE (SEQ ID NO: 225), >95% Pure, TFA salt) is dissolved at 8 mM in 25 mM NaOH solution and kept at −80° C. Prior to the assay, it is diluted to 1 mM in H2O. The 2× Reaction Buffer is prepared with 200 mM Sodium Phosphate, pH6.0, 500 mM Sodium Chloride and 200 μM Thioflavin T (ThT). 100 μL of 2× reaction buffer and 80 μL of H2O are added to each well in black, clear-bottomed 96-well plate. Inhibitor peptides are dissolved in H2O to appropriate concentrations to produce 6-points dose response curves. […] ThT fluorescence is monitored at room temperature every minute for 2 hours with excitation and emission wavelengths of 440 and 485 nm, respectively. […]

The nature of data set [3]: Protein binding in human serum. As to conditions: CPP linked peptides. It is filed as in vitro ADME.
The next data set can be described thus: Stability in human serum. As to conditions: CPP linked peptides, read-out: Stability in Human Serum (t1/2). The data set is classed as in vitro ADME.
The subject of a further data set is Detroit-562. The data set is classed as cell-based. To be noted: 24 h. On the procedure: (§3) To render the inhibitors cell permeable, the peptides are fused to either a nine-residue poly L-Arg tag or a nine-residue poly D-Arg tag, through one of several three-residue linkers, either L-RPI, D-RPI, or D-GGG. Cancer cell lines, e.g. OVCAR-3, and Detroit 562 are treated with the peptide conjugates for 24 hours by the following method. OVCAR3 and Detroit-562 cells are grown in ATCC recommended growth media. The peptides were made in a 4 mM stock. Cells are plated in 96-well flat bottom clear plates at 7000 cells/well. After 24 hours, compounds are serially diluted in one-third [starting at 33 μM] or one-half [starting at 30 μM] dilutions in PrEGM media (Lonza). Growth media was removed from the wells and compound in PrEGM was added to 100 ul final volume. 24 hours post-compound addition cell metabolism was measured by addition of 20 μl MTS solution (Promega, cell-titer 96 aqueous). Absorbance was read at 490 nm following a 2 hour incubation and data was processed in Prism Graphpad to generate EC50 values.

The test system of another data set is OVCAR3. It is filed as cell-based. As to conditions: 24 h. Here is the method: as §3

On to `N=C(N)NCCC[C@@H](N)C(=O)N[C@H](Cc1ccccc1)C(=O)N[C@H](Cc1ccc(O)cc1)C(=O)N[C@H](Cc1ccc(O)cc1)C(=O)N[C@H](Cc1c[nH]cn1)C(=O)N[C@H](CCCNC(=N)N)C(=O)N[C@H](CCCNC(=N)N)C(=O)O` [rfyyhrr] (H-[dR][dF][dY][dY][dH][dR][dR]-OH; N-terminus and C-terminus assumed), for which the “in vitro inhibition of p63 aggregation” value in data set [1] is “delay the aggregation onset and lower the total amount of aggregates present”. In data set [2], the “in vitro inhibition of p73 aggregation” value was “delay the aggregation onset and lower the total amount of aggregates present”.
As usually defined, the fraction unbound is free concentration divided by total concentration. For orientation: EC50 means the concentration that produces a half-maximal response. In the case of `CC[C@@H](C)[C@@H](NC(=O)[C@H]1CCCN1C(=O)[C@@H](CCCNC(=N)N)NC(=O)[C@@H](CCCNC(=N)N)NC(=O)[C@@H](CCCNC(=N)N)NC(=O)[C@@H](CCCNC(=N)N)NC(=O)[C@@H](CCCNC(=N)N)NC(=O)[C@@H](CCCNC(=N)N)NC(=O)[C@@H](CCCNC(=N)N)NC(=O)[C@@H](CCCNC(=N)N)NC(=O)[C@@H](CCCNC(=N)N)NC(=O)[C@H](N)CCCNC(=N)N)C(=O)N[C@H](CCCNC(=N)N)C(=O)N[C@@H](C(=O)N[C@H](Cc1c[nH]cn1)C(=O)N[C@H](Cc1ccc(O)cc1)C(=O)N[C@H](Cc1ccccc1)C(=O)N[C@H](CCCNC(=N)N)C(=O)N[C@H](CCCNC(=N)N)C(=O)O)[C@H](C)CC` [rrrrrrrrrrpirihyfrr] (H-[dR][dR][dR][dR][dR][dR][dR][dR][dR][dR][dP][dI][dR][dI][dH][dY][dF][dR][dR]-OH; N-terminus and C-terminus assumed), the fraction unbound in data set [3] was 0.07. Besides, in “Stability in human serum” (cells given in hr), the half-life was above 1440 min. For the same molecule, the concentration giving a half-maximal response (EC50) is 5 µM in the data set on Detroit-562 and 4 µM with OVCAR3.
For `CC[C@@H](C)[C@@H](NC(=O)[C@H]1CCCN1C(=O)[C@@H](CCCNC(=N)N)NC(=O)[C@@H](CCCNC(=N)N)NC(=O)[C@@H](CCCNC(=N)N)NC(=O)[C@@H](CCCNC(=N)N)NC(=O)[C@@H](CCCNC(=N)N)NC(=O)[C@@H](CCCNC(=N)N)NC(=O)[C@@H](CCCNC(=N)N)NC(=O)[C@@H](CCCNC(=N)N)NC(=O)[C@@H](CCCNC(=N)N)NC(=O)[C@H](N)CCCNC(=N)N)C(=O)N[C@H](CCCCN)C(=O)N[C@H](Cc1c[nH]c2ccccc12)C(=O)N[C@H](CCCNC(=N)N)C(=O)N[C@H](Cc1c[nH]c2ccccc12)C(=O)N[C@H](Cc1ccc(O)cc1)C(=O)N[C@H](CCCNC(=N)N)C(=O)N[C@H](CCCNC(=N)N)C(=O)O` [rrrrrrrrrrpikwrwyrr] (H-[dR][dR][dR][dR][dR][dR][dR][dR][dR][dR][dP][dI][dK][dW][dR][dW][dY][dR][dR]-OH; N-terminus and C-terminus assumed), in that order: 0.06, above 1440 min, 5 µM and 4 µM.
In data set [3], `CC[C@H](C)[C@H](NC(=O)[C@@H]1CCCN1C(=O)[C@H](CCCNC(=N)N)NC(=O)[C@H](CCCNC(=N)N)NC(=O)[C@H](CCCNC(=N)N)NC(=O)[C@H](CCCNC(=N)N)NC(=O)[C@H](CCCNC(=N)N)NC(=O)[C@H](CCCNC(=N)N)NC(=O)[C@H](CCCNC(=N)N)NC(=O)[C@H](CCCNC(=N)N)NC(=O)[C@H](CCCNC(=N)N)NC(=O)[C@@H](N)CCCNC(=N)N)C(=O)N[C@H](Cc1ccc(O)cc1)C(=O)N[C@H](CCC(N)=O)C(=O)N[C@H](Cc1c[nH]c2ccccc12)C(=O)N[C@H](Cc1ccc(O)cc1)C(=O)N[C@H](CCCNC(=N)N)C(=O)N[C@H](Cc1c[nH]c2ccccc12)C(=O)N[C@H](CCC(N)=O)C(=O)O` [RRRRRRRRRRPIyqwyrwq] (H-RRRRRRRRRRPI[dY][dQ][dW][dY][dR][dW][dQ]-OH; N-terminus and C-terminus assumed) gave a fraction unbound of 0.02. Besides, in “Stability in human serum”, the half-life is 50 min. Also, the EC50 in the data set with Detroit-562 came to 13 µM; in the data set with OVCAR3, 10 µM.
In turn, `N=C(N)NCCC[C@@H](N)C(=O)N[C@H](CCCNC(=N)N)C(=O)N[C@H](CCCNC(=N)N)C(=O)N[C@H](CCCNC(=N)N)C(=O)N[C@H](CCCNC(=N)N)C(=O)N[C@H](CCCNC(=N)N)C(=O)N[C@H](CCCNC(=N)N)C(=O)N[C@H](CCCNC(=N)N)C(=O)N[C@H](CCCNC(=N)N)C(=O)NCC(=O)NCC(=O)NCC(=O)N[C@H](Cc1ccc(O)cc1)C(=O)N[C@H](CCC(N)=O)C(=O)N[C@H](Cc1c[nH]c2ccccc12)C(=O)N[C@H](Cc1ccc(O)cc1)C(=O)N[C@H](CCCNC(=N)N)C(=O)N[C@H](Cc1c[nH]c2ccccc12)C(=O)N[C@H](CCC(N)=O)C(=O)O` [rrrrrrrrrgggyqwyrwq] (H-[dR][dR][dR][dR][dR][dR][dR][dR][dR]GGG[dY][dQ][dW][dY][dR][dW][dQ]-OH; N-terminus and C-terminus assumed) gave a fraction unbound in data set [3] of 0.11. Also, the half-life in the data set “Stability in human serum” (cells given in hr) was above 1440 min. In addition, the EC50 in the data set with Detroit-562 turned out to be 8 µM; with OVCAR3, 6 µM.
On to “RRRRRRRRRRPILTRITLE [RRRRRRRRRRPILTRITLE, reference compound]”, for which the fraction unbound in data set [3] was 0.34. For the same molecule, the half-life in the data set “Stability in human serum” came to 339 min. Besides, the EC50 is 9 µM in the data set with Detroit-562 and 8 µM in the data set on OVCAR3.
Consider PRRRRRRRRRRPIIRIRHYRP, for which the fraction unbound in data set [3] was 0.11. For the same molecule, in the data set “Stability in human serum”, the half-life amounted to 116 min. For the same molecule, the EC50 in the data set on Detroit-562 worked out at 12 µM; in the data set with OVCAR3 it was 10 µM.
The matching figures for `CC[C@H](C)[C@H](NC(=O)[C@@H]1CCCN1C(=O)[C@H](CCCNC(=N)N)NC(=O)[C@H](CCCNC(=N)N)NC(=O)[C@H](CCCNC(=N)N)NC(=O)[C@H](CCCNC(=N)N)NC(=O)[C@H](CCCNC(=N)N)NC(=O)[C@H](CCCNC(=N)N)NC(=O)[C@H](CCCNC(=N)N)NC(=O)[C@H](CCCNC(=N)N)NC(=O)[C@H](CCCNC(=N)N)NC(=O)[C@@H](N)CCCNC(=N)N)C(=O)N[C@H](CCCCN)C(=O)N[C@H](Cc1ccccc1)C(=O)N[C@H](CCCNC(=N)N)C(=O)N[C@H](Cc1ccccc1)C(=O)N[C@H](Cc1ccc(O)cc1)C(=O)N[C@H](Cc1c[nH]cn1)C(=O)N[C@H](CCCNC(=N)N)C(=O)O` [RRRRRRRRRRPIkfrfyhr] (H-RRRRRRRRRRPI[dK][dF][dR][dF][dY][dH][dR]-OH; N-terminus and C-terminus assumed): 0.19, 265 min, 15 µM and 11 µM.
The matching figures for PRRRRRRRRRRPILRIRYWKP: 0.02, 200 min, 5 µM and 5 µM.
“RRRRRRRRRRPIIRIRHYP [RRRRRRRRRRPIIRIRHYP]” had a fraction unbound in data set [3] of 0.17. Further, in “Stability in human serum”, the half-life turned out to be 295 min. Moreover, the EC50 in the data set on Detroit-562 amounted to 7 µM; in the data set on OVCAR3 it was 6 µM.
As to LLIKYHR [LLIKYHR], in data set [1], the “in vitro inhibition of p63 aggregation” value was “delay the aggregation onset and lower the total amount of aggregates present”. Besides, the “in vitro inhibition of p73 aggregation” value in data set [2] is “delay the aggregation onset and lower the total amount of aggregates present”.
